Experimental data published in patent US7893094B2, “Amphiphilic pyridinium compounds, method of making and use thereof” (The Henry M. Jackson Foundation for the Advancement of …, priority 2003, dated 2011).
Like-named read-outs stand apart in the source and are kept apart here.

Test system: IL-8 secretion from CF IB-3 cells
Assay: Suppression of spontaneously-elevated (constitutive) IL-8 secretion in IB-3 CF lung epithelial cells, IL-8 ELISA normalised to DNA
Assay type: cell-based
Conditions: for loss of potency: IL-8 secretion, relative to the most potent analogue, Compound 3
Experimental: The CF lung epithelial cells IB3 and S9 have been previously described [Zeitlin et al., 1991; Eidelman et al., 2001a)]. Both […] and S9 cells were grown in serum-free LHC-8 medium (Biofluids), formulated without gentimycin. CF tracheal epithelial cells (2CFTE29o-) were obtained from University of Vermont. The latter cells were grown in EMEM (Biofluids), supplemented with 10% fetal bovine serum (FBS) and 1% Penicillin G-Streptomycin.
Initial assays for dug effects in the screening paradigm were performed in duplicate at 10, 3, 1, and 0.3 μM concentrations on IB-3 cells grown in 96 well microtiter plates. Each individual plate contained IB-3 and IB-3/S9 cells to set the boundary conditions of the assay. CPX and DAX, 5 μM each, were included in separate wells as positive controls. “Hits” in the screen were chosen on the basis of at least a 50% reduction in constitutive IL-8 secretion. Following a positive retest, candidate compounds were taken off-line for more detailed analysis under the exact same assay conditions. […] In most circumstances we use a maximum final solvent concentration of 0.1% DMSO or 0.01% ETOH.
The details of this assay have been described in a previous publication (Eidehman et la., 2001 a). Briefly, IB-3 cells are grown in 96 well microtiter plates to 80% confluency. Drugs, diluted in LHC-8 medium at the given concentrations, are added, and the cells allowed to incubate for an additional 24 hours. To initiate the experiment, cells are washed with fresh LHC-8 medium, and then incubated for an additional 16 hours in the same medium supplemented with drug. At the end of the time period, the supernatant solutions are collected and assayed for IL-8 by and ELISA assay. Alternatively, the samples are immediately frozen at −80° C. […] The IL-8 ELISA assay was assembled from bulk materials purchased from R&D, and performed exactly according to the manufacturers specifications. To detect possible drug toxicity on cells, as well as normalize to total cells per well, we measure the double stranded DNA content of cells attached to the plate after removal of supernatant solutions for IL-8 assay. Cells remaining on the plate are then fixed with 10% formalin for 30 minutes at room temperature before being incubated with propidium iodide (kit from Boehringer Mannheim). Propidium iodide content in each well is then measured with an automated fluorescence plate reader (FLUOstar Optima, MBG Lab Technologies). Final IL-8 data are calculated as a ratio of secreted IL-8 to DNA for each well. On occasion, cell proliferation assays are also carried out using the XTT assay (Roche).

[1] = inhibition of IL-8 secretion from CF IB-3 cells, Table 3 prints no unit (b104 gives μM for Compound 3), read-out: IC50

Molecule	IC50 [1]	activity on IL-8 secretion/production, in words	other results
8-(3-carboxyamido-pyridinium)-n-octylα-methyl-2-(4[2-methylpropyl]benzene)-acetate iodide [Compound 18]	5.56 ± 0.98 µM		
8-Pyridinium-n-octyl benzoate iodide [Compound 11]	> 30 µM		
8-Pyridinium-n-octyl propionate iodide [Compound 7]	12 ± 0.8 µM		loss of potency: 34 fold
C[C@H](OCc1ccccc1)C(=O)OCCCCCCCC[n+]1ccccc1 [Compound 10, S-8-Pyridinium-n-octyl α-benzyloxy-2-propionate iodide]	> 30 µM		
CC(C(=O)OCCCCCCCC[n+]1ccccc1)c1ccc(NC(=O)OC(C)(C)C)cc1.[I-] (stereo not drawn) [Compound 16]	4.6 ± 0.9 µM	retention of the activity	
CC(C(=O)OCCCCCCCC[n+]1ccccc1)c1ccc(N)cc1.I.[I-] (stereo not drawn) [Compound 17, 8-Pyridinium-n-octyl α-methyl-2-[4-ammonium-phenyl]acetate iodide]	> 30 µM	eliminated activity	
CC(C)Cc1ccc([C@H](C)C(=O)OCCCCCCCC[N+]2(C)CCOCC2)cc1.[Br-] [Compound 21, S-8-[N-Methylmorpholinium-n-octyl α-methyl-2-(4]2-methylpropyl]benzene)acetate bromide]	24 ± 1 µM		
R-8-Pyridinium-n-butyl α-methyl-2-phenylacetate iodide [Compound 1]	> 30 µM		
R-8-Pyridinium-n-decyl α-methyl-2-phenylacetate iodide [Compound 4]	2.52 ± 0.39 µM		
R-8-Pyridinium-n-hexyl α-methyl-2-phenylacetate iodide [Compound 2]	> 30 µM		
R-8-Pyridinium-n-octyl 2-hydroxy-3-phenylpropionate iodide [Compound 12]	> 30 µM	no activity was evident	
R-8-Pyridinium-n-octyl α-ethyl-2-phenylacetate iodide [Compound 8]	3.16 ± 0.52 µM	eliminated the activity	
R-8-Pyridinium-n-octyl α-hydroxy-α-methyl-2-phenylacetate iodide [Compound 6]	> 30 µM	failed to restore the activity	
R-8-Pyridinium-n-octyl α-methyl-2-phenylacetate iodide [Compound 3]			IC50 (IB-3 CF cells, read-out: IC50, inhibition of IL-8 secretion): 0.35 µM; stereoselectivity of action in favor of the (R)-isomer (IL-8 production, Compound 3 (R) versus its enantiomer Compound 5): > 70 fold
S,S-1.8-di((α-methyl 2-(4-[2-methylpropyl]phenyl acetoxy)-n-octane [Compound 22]	> 30 µM	eliminated the activity	
S-8-(4-2-hydroxy-ethyl)pyridinium)-n-octyl α-methyl-2-(4-[2-methylpropyl]benzene)acetate bromide [Compound 20]	18 ± 0.9 µM		
S-8-(4-n-Prolpylpyridinium)-n-octyl α-methyl-2-(4-[2-methylpropyl]benzene)acetate bromide [Compound 19]	3.3 ± 0.5 µM		
S-8-Pyridinium-n-octyl 2-hydroxy-3-phenylpropionate iodide [Compound 13]	> 30 µM	no activity was evident	
S-8-Pyridinium-n-octyl α-methoxy-2-phenylacetate iodide [Compound 9]	> 30 µM	failed to restore the activity	
S-8-Pyridinium-n-octyl α-methyl-2-(4-[2-methylpropyllbenzeneacetate bromide [Compound 15]	2.2 ± 0.8 µM		loss of potency: 6 fold
S-8-Pyridinium-n-octyl α-methyl-2-phenylacetate iodide [Compound 5]	> 25 µM	much less active	
